Molecular target: Cytochrome P450 2E1 (Homo sapiens, UniProt P05181)
Test: Spectral Binding Assay
Source text: All UV/Vis spectra of the enzyme-ligand complexes were obtained on a Cary 5000 UV/Vis spectrophotometer.

Cytochrome P450 2E1, sequence (P05181 whole entry): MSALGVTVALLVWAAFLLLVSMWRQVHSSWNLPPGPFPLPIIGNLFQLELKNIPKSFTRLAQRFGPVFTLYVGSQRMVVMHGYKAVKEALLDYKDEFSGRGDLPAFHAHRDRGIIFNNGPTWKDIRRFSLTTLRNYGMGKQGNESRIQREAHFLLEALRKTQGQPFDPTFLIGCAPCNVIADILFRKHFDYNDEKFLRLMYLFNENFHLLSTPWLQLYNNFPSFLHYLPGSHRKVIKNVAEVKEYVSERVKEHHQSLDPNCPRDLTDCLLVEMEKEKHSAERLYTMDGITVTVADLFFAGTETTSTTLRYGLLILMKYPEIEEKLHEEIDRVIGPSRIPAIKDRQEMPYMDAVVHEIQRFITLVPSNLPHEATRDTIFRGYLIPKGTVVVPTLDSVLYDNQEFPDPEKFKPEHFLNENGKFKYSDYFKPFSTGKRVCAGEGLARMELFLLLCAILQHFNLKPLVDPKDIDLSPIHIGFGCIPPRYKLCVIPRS

`CCCCCOC(=O)c1cccnc1` [Auxiliary substrate, 12a] was tested, and the Kd was 5900 nM.
`O=C(OCC1CCCC1)c1cccnc1` [Auxiliary substrate, 20a] showed a Kd of 1600 nM.
`CCCCCCOC(=O)c1cccnc1` [Auxiliary substrate, 1a] showed a Kd of 1400 nM.
With `C=CCCOC(=O)c1cccnc1` [Auxiliary substrate, 18a] the Kd was 12000 nM.
In the case of `CCCCCCCCOC(=O)c1cccnc1` [Auxiliary substrate, 14a], the Kd is reported as 2100 nM.
In the case of `CC(C)CCCCOC(=O)c1cccnc1` [Auxiliary substrate, 11a], the Kd is reported as 1800 nM.
`CCC(C)CCOC(=O)c1cccnc1` (stereo not drawn) [Auxiliary substrate, 10a] was tested, and the Kd was 2600 nM.
`CC/C=C/CCOC(=O)c1cccnc1` [Auxiliary substrate, 16a] gave a Kd of 1300 nM.
